The results in this text go back to ChEMBL document CHEMBL4680161, “Design and synthesis of α-naphthoflavone chimera derivatives able to eliminate cytochrome P450 (CYP)1B1-mediated drug resistance via targeted CYP1B1 degradation” (Eur J Med Chem, 2020).

One data set deals with T1, Cytochrome P450 1B1 (Homo sapiens, UniProt Q16678).
T1 sequence (Q16678 whole entry): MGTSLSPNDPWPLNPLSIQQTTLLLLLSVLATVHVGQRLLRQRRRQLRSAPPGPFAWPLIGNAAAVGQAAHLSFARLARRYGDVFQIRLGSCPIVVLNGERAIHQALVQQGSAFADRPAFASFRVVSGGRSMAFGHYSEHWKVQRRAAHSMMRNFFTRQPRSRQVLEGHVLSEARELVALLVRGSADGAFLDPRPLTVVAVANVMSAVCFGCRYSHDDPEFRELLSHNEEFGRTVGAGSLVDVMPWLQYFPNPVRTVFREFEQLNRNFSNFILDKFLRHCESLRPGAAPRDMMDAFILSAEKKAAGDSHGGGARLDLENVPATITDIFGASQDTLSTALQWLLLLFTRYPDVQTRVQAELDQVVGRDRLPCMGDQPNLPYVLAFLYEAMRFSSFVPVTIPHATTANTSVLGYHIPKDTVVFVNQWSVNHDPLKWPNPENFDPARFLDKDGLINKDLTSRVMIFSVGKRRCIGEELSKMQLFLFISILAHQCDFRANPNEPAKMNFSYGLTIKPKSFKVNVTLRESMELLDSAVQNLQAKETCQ
Put plainly: Inhibition of recombinant human CYP1B1 expressed in baculovirus infected insect cells using 7-ethoxyresorufin as substrate preincubated for 5 mins followed by NADPH addition and measured after 15 mins by EROD assay.

Data set [1] deals with von Hippel-Lindau disease tumor suppressor/Cytochrome P450 1B1 (Homo sapiens, UniProt Q16678+P40337). Put plainly: Protac activity at E3 ubiquitin ligase/CYP1B1 (unknown origin) expressed in human DU145 cells assessed as induction of CYP1B1 degradation by immunoblotting analysis. The data set is classed as cell-based. The settings on record: du-145. (In western blotting, separated proteins are transferred to a membrane and probed.)
Chain of von Hippel-Lindau disease tumor suppressor/Cytochrome P450 1B1 (P40337 whole entry, one chain of several): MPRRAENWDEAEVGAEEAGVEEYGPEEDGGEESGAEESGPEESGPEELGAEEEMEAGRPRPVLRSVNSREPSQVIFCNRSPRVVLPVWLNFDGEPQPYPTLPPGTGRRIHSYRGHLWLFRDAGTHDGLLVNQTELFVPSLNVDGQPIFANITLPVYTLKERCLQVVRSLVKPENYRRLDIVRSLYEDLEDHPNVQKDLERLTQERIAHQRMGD

The species named for a further data set is Homo sapiens. Put plainly: Selectivity ratio IC50 for inhibition of recombinant human CYP1A2 to inhibition of recombinant human CYP1B1.
A further data set concerns the target T2, Cytochrome P450 1A2 (Homo sapiens, UniProt P05177).
T2 sequence (P05177 whole entry): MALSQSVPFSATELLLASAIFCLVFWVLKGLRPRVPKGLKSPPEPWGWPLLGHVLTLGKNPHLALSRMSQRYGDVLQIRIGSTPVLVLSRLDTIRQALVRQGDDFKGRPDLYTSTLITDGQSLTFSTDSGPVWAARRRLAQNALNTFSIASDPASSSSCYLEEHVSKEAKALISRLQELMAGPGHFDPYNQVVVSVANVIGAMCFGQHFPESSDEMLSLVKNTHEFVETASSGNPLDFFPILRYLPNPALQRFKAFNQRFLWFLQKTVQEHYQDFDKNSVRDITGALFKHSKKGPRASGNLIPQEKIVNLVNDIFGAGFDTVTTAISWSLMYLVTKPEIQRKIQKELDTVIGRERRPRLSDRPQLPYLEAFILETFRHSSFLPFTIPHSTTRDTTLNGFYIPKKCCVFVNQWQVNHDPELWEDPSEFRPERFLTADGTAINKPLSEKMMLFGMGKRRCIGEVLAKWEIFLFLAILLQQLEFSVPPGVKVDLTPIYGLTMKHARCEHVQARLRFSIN
Put plainly: Inhibition of recombinant human CYP1A2 expressed in baculovirus infected insect cells using 7-ethoxyresorufin as substrate preincubated for 5 mins followed by NADPH addition and measured after 35 mins by EROD assay. The data set is classed as ADME.

Data set [2] has as its system DU-145. Briefly: Cytotoxicity against human DU-145 cells assessed as reduction in cell viability after 48 hrs by MTT assay. The data set is classed as functional, cell-based. The settings on record: DU-145, 48 h. A general note: Formazan colour is commonly taken as a measure of viable cells.
The subject of data set [3] is DU-145. Put plainly: Cytotoxicity against human DU-145 cells over expressing CYP1B1 assessed as reduction in cell viability after 48 hrs by MTT assay. The data set is classed as functional, cell-based. The settings on record: DU-145, 48 h.
Data set [4] is described as follows: Selectivity ratio of IC50 for cytotoxicity against human DU-145 cells over expressing CYP1B1 to cytotoxicity against human DU-145 cells. The data set is classed as functional.

Structures are written as SMILES. Some results are limits rather than exact numbers.

What is called IC50 is the concentration that gives 50% inhibition. Take `COc1ccc(OC)c2c1c(OC)cc1c(=O)cc(-c3ccc(-c4cn(CCOc5cccc6c5C(=O)N(C5CCC(=O)NC5=O)C6=O)nn4)cc3)oc12` (configuration not stated): the results for the IC50 on Cytochrome P450 1B1 and on Cytochrome P450 1A2 were 101 nM and 9030 nM, respectively. Moreover, in data set [1], the result was Active. In addition, in the data set listed under Homo sapiens, the Ratio IC50 was 89.2.

Regarding `COc1ccc(OC)c2c1c(OC)cc1c(=O)cc(-c3ccc(-c4c[nH]nn4)cc3)oc12`, the values for the concentration for half-maximal inhibition (IC50) on Cytochrome P450 1B1 and at Cytochrome P450 1A2 were 0.4 nM and 47.8 nM, respectively. Besides, in the data set filed under Homo sapiens, the Ratio IC50 came to 120.

Take `[N-]=[N+]=NCCCCCCOc1cccc2c1C(=O)N(C1CCC(=O)NC1=O)C2=O` (configuration not stated): the half-maximal inhibitory concentration (IC50) at Cytochrome P450 1B1 and on Cytochrome P450 1A2 was greater than 10000 nM in each case.

As for `COc1ccc(OC)c2c1c(OC)cc1c(=O)cc(-c3ccccc3)oc12`, the IC50 came to 1.4 nM on Cytochrome P450 1B1 and 25.8 nM on Cytochrome P450 1A2. The Ratio IC50 in the data set filed under Homo sapiens came to 18.4.

As for `COc1ccc(OC)c2c1c(OC)cc1c(=O)cc(-c3ccc(-c4cn(CCCCCCCCOc5cccc6c5C(=O)N(C5CCC(=O)NC5=O)C6=O)nn4)cc3)oc12` (configuration not stated), the IC50 stood at 166 nM at Cytochrome P450 1B1 and 7460 nM on Cytochrome P450 1A2. The Activity entry in data set [1] is recorded as “Not Active”. For the same compound, the Ratio IC50 in the data set filed under Homo sapiens amounted to 44.8.

On to `COc1ccc(OC)c2c1c(OC)cc1c(=O)cc(-c3ccc(Cl)cc3)oc12`, for which the IC50 stood at 0.6 nM on Cytochrome P450 1B1 and 37.2 nM at Cytochrome P450 1A2. Further, the Ratio IC50 in the data set listed under Homo sapiens is 62.

As for `[N-]=[N+]=NCCOc1cccc2c1C(=O)N(C1CCC(=O)NC1=O)C2=O` (configuration not stated), the IC50 on Cytochrome P450 1B1 and at Cytochrome P450 1A2 was greater than 10000 nM in each case.

As for `COc1ccc(OC)c2c1c(OC)cc1c(=O)cc(-c3ccc(-c4cn(CCCCCCOc5cccc6c5C(=O)N(C5CCC(=O)NC5=O)C6=O)nn4)cc3)oc12` (configuration not stated), the half-inhibitory concentration (IC50) at Cytochrome P450 1B1 was determined as 95.1 nM; on Cytochrome P450 1A2, 9840 nM. Also, in data set [1], the Activity result was “Dose-dependent effect and Tde”. Further, the Ratio IC50 in the data set filed under Homo sapiens amounted to 104.

Consider `[N-]=[N+]=NCCCCCOc1cccc2c1C(=O)N(C1CCC(=O)NC1=O)C2=O` (configuration not stated), for which the IC50 at Cytochrome P450 1B1 and on Cytochrome P450 1A2 was greater than 10000 nM in each case. In addition, in data set [1], the Activity result is “Not Active”.

Take `[N-]=[N+]=NCCCCCCCCOc1cccc2c1C(=O)N(C1CCC(=O)NC1=O)C2=O` (configuration not stated): the IC50 at Cytochrome P450 1B1 and on Cytochrome P450 1A2 was greater than 10000 nM each time. For the same compound, the Activity result in data set [1] is “Not Active”.

For `COc1ccc(OC)c2c1c(OC)cc1c(=O)cc(-c3ccc(-c4cn(CCCCCOc5cccc6c5C(=O)N(C5CCC(=O)NC5=O)C6=O)nn4)cc3)oc12` (configuration not stated), the IC50 on Cytochrome P450 1B1 amounted to 153 nM; at Cytochrome P450 1A2, 8570 nM. The result in data set [1] was Active. Besides, the Ratio IC50 in the data set listed under Homo sapiens came to 56.1.

In the case of `CC(=O)O[C@@]12CO[C@@H]1C[C@H](O)[C@@]1(C)C(=O)[C@H](O)C3=C(C)[C@@H](OC(=O)[C@H](O)[C@@H](NC(=O)OC(C)(C)C)c4ccccc4)C[C@@](O)([C@@H](OC(=O)c4ccccc4)[C@H]21)C3(C)C` [DOCETAXEL ANHYDROUS], the IC50 with DU-145 [2] was found to be 4.95 nM; in the data set on DU-145 [3], 43.2 nM. For the same compound, the “Ratio IC50” value in data set [4] is on record as 9.

For the compound `C#Cc1ccc(-c2cc(=O)c3cc(OC)c4c(OC)ccc(OC)c4c3o2)cc1`, the 50% inhibitory concentration (IC50) at Cytochrome P450 1B1 was 2.1 nM; at Cytochrome P450 1A2 it was 885 nM. Moreover, the Activity entry in data set [1] is given as “Not Active”. The Ratio IC50 in the data set listed under Homo sapiens was 422.
